Experimental data published in publication PMC10289985, “Brigatinib pharmacokinetics in patients with chronic hepatic impairment” (Investigational New Drugs, 2023).

Assays:
[1] = Safety and adverse event monitoring after a single 90-mg dose; type: in vivo, human
Protocol: All enrolled participants who received brigatinib were included in the safety population. Adverse event (AE) monitoring occurred throughout the study. Physical examination was conducted at screening with additional symptom-directed physical examinations performed at the investigator’s discretion on study Days −1 and 9. Height, weight, and BMI were recorded at screening. Vital signs were recorded at screening; on Day −1; predose and at 0.5, 1, 2, 3, 4, 6, 8, 12, 24, 36, 48, 72, 96, 120, 144, and 168 hours postdose; and on Day 9. Electrocardiograms were conducted at screening, on Day −1, predose and at 3 and 48 hours postdose, and on Day 9. Clinical laboratory evaluations were performed at screening and on Days −1 and 9 and were reviewed by the investigator for clinical significance.

[2] = system: cytochrome P450 (CYP) 2C8 and CYP3A4; set-up: method as in ref 13 = [13]; 13. Alunbrig [package insert] (2022) Takeda Pharmaceuticals America, Inc., Lexington, MA; conditions: in vitro; cited from earlier work
[3] = set-up: method as in PMID 32816246; conditions: single oral 180 mg [14C]-brigatinib; cited from earlier work

## COc1cc(N2CCC(N3CCN(C)CC3)CC2)ccc1Nc1ncc(Cl)c(Nc2ccccc2P(C)(C)=O)n1 [brigatinib]
[1]; Child-Pugh A group
  number of TEAEs: 2 events
[1]; Child-Pugh A group (n=6)
  participants with one or more TEAEs: 2 participants
[1]; Child-Pugh B group
  number of TEAEs: 13 events
  participants with moderate TEAEs possibly related to the study drug: Two
[1]; Child-Pugh B group (n=6)
  participants with one or more TEAEs: 4 participants
[1]; Child-Pugh C group
  number of TEAEs: 2 events
[1]; Child-Pugh C group (n=6)
  participants with one or more TEAEs: 2 participants
[1]; all 27 study participants, single 90 mg
  participants with one or more treatment-emergent adverse events (TEAEs): 13 participants
[1]; all participants
  participants with constipation: 2 participants
  participants with dyspnea: 2 participants
  participants with headache: 4 participants
  participants with hypertension: 2 participants
  participants with nausea: 2 participants
[1]; during the study
  changes in laboratory values or electrocardiogram measurements: No clinically significant changes
  discontinuation due to an AE: no participants discontinued
  serious AEs: no serious AEs
[1]; healthy participant group
  number of TEAEs: 5 events
[1]; healthy participant group (n=9)
  participants with one or more TEAEs: 5 participants
[1]; single 90-mg dose, healthy participants and participants with hepatic impairment
  tolerability: well tolerated
[2]
  metabolizing enzymes: primarily metabolized by cytochrome P450 (CYP) 2C8 and CYP3A4
[3]
  administered dose recovered in the feces: approximately 65%
  administered dose recovered in the urine: 25%
  fecal recovery as unchanged brigatinib: 41%
  urinary recovery as unchanged brigatinib: 86%
